Data reported in the supplement of paper PMC4932681.
Counter-ions that a name gives are not always drawn.

Tests used:
Assay in all cases: viability inhibition at highest dose (% inhibition); higher = more growth inhibition
MCF-7 = settings: 72 h
Procedure: (§1)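 Percent inhibition of viability (CellTiter-Glo, 72 h) at the highest tested concentration (D5), normalised to DMSO (0%) and 100 µM benzethonium chloride (100%). Resistant lines and the 'in 1µM tamoxifen' arms were tested in 1 µM 4-OH-tamoxifen.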

T-47D = settings: 72 h
Procedure: as §1

BT-474 = settings: 72 h
Procedure: as §1

T-47D Tam2 = settings: 4-OH-tamoxifen in medium 1 µM; 72 h
Procedure: as §1

ZR-75-1 Tam2 = settings: 4-OH-tamoxifen in medium 1 µM; 72 h
Procedure: as §1

BT-474 Tam2 = settings: 4-OH-tamoxifen in medium 1 µM; 72 h
Procedure: as §1

BT-474 Tam1 = settings: 4-OH-tamoxifen in medium 1 µM; 72 h
Procedure: as §1

MCF-7 Tam1 = settings: 4-OH-tamoxifen in medium 1 µM; 72 h
Procedure: as §1

ZR-75-1 = settings: 72 h
Procedure: as §1

T-47D Tam1 = settings: 4-OH-tamoxifen in medium 1 µM; 72 h
Procedure: as §1

ZR-75-1 Tam1 = settings: 4-OH-tamoxifen in medium 1 µM; 72 h
Procedure: as §1

Structure (SMILES) | viability inhibition at highest dose (MCF-7; 4-OH-tamoxifen in medium 0 µM) | viability inhibition at highest dose (MCF-7; 4-OH-tamoxifen in medium 1 µM) | viability inhibition at highest dose (T-47D; 4-OH-tamoxifen in medium 0 µM) | viability inhibition at highest dose (T-47D; 4-OH-tamoxifen in medium 1 µM) | viability inhibition at highest dose (BT-474; 4-OH-tamoxifen in medium 0 µM) | viability inhibition at highest dose (BT-474; 4-OH-tamoxifen in medium 1 µM) | viability inhibition at highest dose (T-47D Tam2) | viability inhibition at highest dose (ZR-75-1 Tam2) | viability inhibition at highest dose (BT-474 Tam2) | viability inhibition at highest dose (BT-474 Tam1) | viability inhibition at highest dose (MCF-7 Tam1) | viability inhibition at highest dose (ZR-75-1; 4-OH-tamoxifen in medium 0 µM) | viability inhibition at highest dose (ZR-75-1; 4-OH-tamoxifen in medium 1 µM) | viability inhibition at highest dose (T-47D Tam1) | viability inhibition at highest dose (ZR-75-1 Tam1)
Cn1cnc2c(F)c(Nc3ccc(Br)cc3Cl)c(C(=O)NOCCO)cc21 [Selumetinib  (AZD6244)] (drug 10000 nM) | 13.7 | 16.6 | -3.23 | -12.3 | -0.443 | 29.7 | 10.8 | 3.53 | -2.62 | 21.1 | 11.7 | -8.87 | -4.69 | 19.9 | 2.2
S=P(N1CC1)(N1CC1)N1CC1 [Thio-TEPA] (drug 100000 nM) | -13.2 | 9.81 | 2.16 | -2.96 | -3.59 | -5.3 | -1.13 | 4.16 | 9.92 | 11.3 | -0.761 | 4.61 | -3.56 | 3.55 | 11.1
COc1cc2ncnc(Nc3ccc(F)c(Cl)c3)c2cc1OCCCN1CCOCC1 [Gefitinib] (drug 10000 nM) | 28 | 35.6 | 12.1 | 8.3 | 86.4 | 96.6 | 47.3 | 18.6 | 96.8 | 97.7 | 14.2 | 13.1 | 27.5 | 34.2 | 22.2
CO[C@@H]1[C@H](N(C)C(=O)c2ccccc2)C[C@H]2O[C@]1(C)n1c3ccccc3c3c4c(c5c6ccccc6n2c5c31)C(=O)NC4 [Midostaurin (PKC412)] (drug 10000 nM) | 18.9 | 17 | 18.3 | 39.4 | 23.7 | 40.4 | 25.1 | -15.6 | 19.4 | 27.5 | 17.7 | -11.7 | 0.532 | 34.6 | -11.5
O=C(CCCCCCC(=O)Nc1ccccc1)NO [Vorinostat] (drug 10000 nM) | 83.5 | 80.9 | 87.5 | 88.9 | 76.5 | 92.9 | 41.9 | 37.8 | 86.8 | 91.2 | 23.1 | 37.5 | 32.9 | 58.5 | 38.9
COc1cc(Nc2ncc(F)c(Nc3ccc4c(n3)NC(=O)C(C)(C)O4)n2)cc(OC)c1OC [Tamatinib (R406)] (drug 10000 nM) | -1.78 | 4.31 | -10 | -10.3 | -9.68 | -22.1 | 9.45 | -2.25 | -9.51 | -6.1 | -9.69 | -7.27 | -4.27 | 14.3 | 0.732
CS(=O)(=O)OCCCCOS(C)(=O)=O [Busulfan] (drug 100000 nM) | -5.52 | 10.5 | -1.41 | -0.37 | 1.99 | 8.07 | 6.32 | -11.6 | 1 | -2.76 | -1.89 | 1.38 | -1.26 | 1.25 | -5.35
O=P(O)(O)C(O)(Cn1ccnc1)P(=O)(O)O [Zoledronic acid] (drug 10000 nM) | -12.6 | -12.2 | -11.4 | -6.56 | -0.0303 | -3.42 | 1.06 | -9.06 | -6.19 | 2.75 | -6.7 | -6.71 | -4.06 | -5.82 | -0.251
Cn1cncc1[C@@](N)(c1ccc(Cl)cc1)c1ccc2c(c1)c(-c1cccc(Cl)c1)cc(=O)n2C [Tipifarnib  (Zarnestra)] (drug 10000 nM) | 64.4 | 77.7 | 28.4 | 14.2 | 42.6 | 77.3 | 44.6 | 57.7 | 78.5 | 85.4 | 42 | 51 | 50.5 | 55.8 | 57.6
CCNC(=O)c1noc(-c2cc(C(C)C)c(O)cc2O)c1-c1ccc(CN2CCOCC2)cc1 [NVP-AUY922] (drug 1000 nM) | 61.6 | 46.1 | 68.8 | 55.5 | 48.6 | 78 | 55 | 44.4 | 65.7 | 75.2 | 24.1 | 34.2 | 42.6 | 49.8 | 28.5
Cc1ccc(F)c(NC(=O)Nc2ccc(-c3cccc4[nH]nc(N)c34)cc2)c1 [Linifanib (ABT-869)] (drug 1000 nM) | -7.63 | 4.89 | -7.82 | -2.26 | -5.83 | -19 | -13.7 | -0.131 | -11.2 | -15 | -5.44 | -3.03 | -10.3 | 5.32 | -5.49
Nc1ncn([C@@H]2O[C@H](CO)[C@@H](O)[C@H]2O)c(=O)n1 [Azacitidine] (drug 10000 nM) | 31.9 | -0.966 | 16.3 | -5.14 | 11.1 | 12.4 | 21 | 7.49 | 17.2 | 1.3 | 1.85 | 11.2 | 0.709 | 23.6 | 11.9
O=C(CCBr)N1CCN(C(=O)CCBr)CC1 [Pipobroman] (drug 10000 nM) | -15.2 | 9.48 | -14.7 | -5.88 | -11.7 | -7.15 | 9.55 | -10.5 | -8.7 | -12.7 | -9.06 | -15 | -9.45 | 1.06 | 1.68
O=C(/C=C/c1cccnc1)NCCCCC1CCN(C(=O)c2ccccc2)CC1 [Daporinad (FK-866 HCl)] (drug 1000 nM) | 76.6 | 67.9 | 92.2 | 90.2 | 12.2 | 64.7 | 85.3 | 0.891 | 17.4 | 47.2 | -5.53 | -2.09 | -11.5 | 91.9 | -12.7
Cc1c2oc3c(C)ccc(C(=O)N[C@@H]4C(=O)N[C@H](C(C)C)C(=O)N5CCC[C@H]5C(=O)N(C)CC(=O)N(C)[C@@H](C(C)C)C(=O)O[C@@H]4C)c3nc-2c(C(=O)N[C@@H]2C(=O)N[C@H](C(C)C)C(=O)N3CCC[C@H]3C(=O)N(C)CC(=O)N(C)[C@@H](C(C)C)C(=O)O[C@@H]2C)c(N)c1=O [Dactinomycin] (drug 1000 nM) | 74.5 | 72.2 | 49.2 | 31.5 | 36.7 | 81.9 | 62.7 | 60.9 | 88.4 | 95.6 | 61.6 | 45.4 | 53.8 | 63.4 | 55.6
CN(C)C[C@@H]1CCn2cc(c3ccccc32)C2=C(C(=O)NC2=O)c2cn(c3ccccc23)CCO1 (drug 10000 nM) | 99.8 | 69.5 | 72.1 | 97.4 | 76 | 101 | 70.2 | 47.1 | 98 | 100 | 22.1 | 45.5 | 70.9 | 71.2 | 37.7
CCc1c(C(=O)C(N)=O)c2c(OCC(=O)O)cccc2n1Cc1ccccc1 [Varespladib] (drug 10000 nM) | 13.3 | -9.89 | -1.77 | -10.9 | 0.192 | -17.3 | -7.24 | -6.3 | -5.77 | -12.8 | -3.81 | -0.701 | -2.07 | -7.33 | -2.44
CS(=O)(=O)c1ccc(C(=O)Nc2ccc(Cl)c(-c3ccccn3)c2)c(Cl)c1 [Vismodegib] (drug 10000 nM) | 8.35 | 5.18 | 3.38 | 6.47 | 2.54 | 9.28 | 3.9 | 10.7 | 6.56 | 18.7 | 10.9 | -1.58 | 4.37 | -0.759 | 5.76
CC(C)C[C@H](NC(=O)[C@@H](COC(C)(C)C)NC(=O)[C@H](Cc1ccc(O)cc1)NC(=O)[C@H](CO)NC(=O)[C@H](Cc1c[nH]c2ccccc12)NC(=O)[C@H](Cc1cnc[nH]1)NC(=O)[C@@H]1CCC(=O)N1)C(=O)N[C@@H](CCCNC(=N)N)C(=O)N1CCC[C@H]1C(=O)NNC(N)=O [Goserelin acetate] (drug 10000 nM) | -35 | 2.51 | -9.98 | -8.33 | -9.97 | -17.3 | 13 | -3.44 | 3.49 | 4.09 | -8.86 | -9.52 | -3.92 | 3.41 | 3.63
C[C@@H]1C[C@H]2[C@@H]3CCC4=CC(=O)C=C[C@]4(C)[C@@]3(F)[C@@H](O)C[C@]2(C)[C@@]1(O)C(=O)CO [Dexamethasone  (Decadron)] (drug 10000 nM) | -5.26 | 18 | -14.5 | -19 | -8.58 | -20.8 | 10.6 | 12.7 | -0.0711 | 3.71 | -7.5 | -4.79 | -6.32 | 1.63 | 3.7
O=C1NC(=O)[C@@H](c2cn3c4c(cccc24)CCC3)[C@@H]1c1c[nH]c2ccccc12 [Tivatinib (ARQ 197)] (drug 1000 nM) | 27.5 | 18.4 | 43.2 | 7.95 | 34.3 | 43.9 | 27.8 | 8.59 | 10.4 | 16.1 | -6.15 | 19.6 | 10.3 | 26.7 | 5.46
COc1cccc2c1C(=O)c1c(O)c3c(c(O)c1C2=O)C[C@@](O)(C(=O)CO)C[C@@H]3O[C@H]1C[C@H](N)[C@H](O)[C@H](C)O1 [Doxorubicin] (drug 1000 nM) | 76.9 | 66.1 | 73 | 76.2 | 65 | 90.4 | 72.7 | 73.5 | 16.9 | 68.5 | 56.6 | 62.2 | 82.4 | 77.1 | 76.4
CN(C)C/C=C/C(=O)Nc1cc2c(Nc3ccc(F)c(Cl)c3)ncnc2cc1O[C@H]1CCOC1 [Afatinib (BIBW2992, Tovok)] (drug 1000 nM) | -11.5 | 19 | 0.755 | -3.23 | 82.2 | 93.8 | 16.6 | -3.77 | 95.5 | 95.9 | -0.193 | -5.16 | 1.48 | 19.8 | 0.501
COCC1(CO)C(=O)C2CCN1CC2 (stereo not given) [Prima-1 Met] (drug 10000 nM) | 10.8 | 3.83 | -7.38 | -11.1 | -9.27 | -13.3 | -9.64 | 17.7 | 0.869 | -5.47 | -10.1 | -1.59 | -9.16 | 1.75 | -1.64
O=c1[nH]cc(F)c(=O)[nH]1 [Fluorouracil] (drug 10000 nM) | 35.1 | 4.26 | 13.4 | 10.1 | -7.65 | -2.76 | 9.76 | 17.1 | 0.595 | 1.71 | 8.84 | 16.4 | 15.2 | 5.54 | 8.57
Cn1c(=O)c(F)c(Nc2ccc(I)cc2F)c2c(=O)n(C[C@@H](O)CO)cnc21 [TAK-733] (drug 1000 nM) | 16.8 | 22.9 | -7.47 | -14.5 | 3.01 | 18.7 | 16.5 | -5.15 | 14.3 | 7.81 | 13.8 | -7.07 | -1.35 | 25.4 | 0.97
